# Assays:
# Test in all cases: Eurofins kinase selectivity profile against 380 other human recombinant kinases (Table S2)
# Type in all cases: biochemical
# [1] = target: T1, 380 human recombinant protein kinases (Homo sapiens, UniProt P05129); conditions: PKCγ(h), read-out: Inhibition rate
# T1 construct: purchased Eurofins (Celle Lévescault)
# Summary of the method: (§1)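 Off-target profiling: one compound assayed by a commercial provider over 380 recombinant human protein kinases at various concentrations.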
# [2] = target: T2, 380 human recombinant protein kinases (Homo sapiens, UniProt P10398); conditions: A-Raf(h), read-out: Inhibition rate
# T2 construct: purchased Eurofins (Celle Lévescault)
# T2 sequence (P10398 1-606): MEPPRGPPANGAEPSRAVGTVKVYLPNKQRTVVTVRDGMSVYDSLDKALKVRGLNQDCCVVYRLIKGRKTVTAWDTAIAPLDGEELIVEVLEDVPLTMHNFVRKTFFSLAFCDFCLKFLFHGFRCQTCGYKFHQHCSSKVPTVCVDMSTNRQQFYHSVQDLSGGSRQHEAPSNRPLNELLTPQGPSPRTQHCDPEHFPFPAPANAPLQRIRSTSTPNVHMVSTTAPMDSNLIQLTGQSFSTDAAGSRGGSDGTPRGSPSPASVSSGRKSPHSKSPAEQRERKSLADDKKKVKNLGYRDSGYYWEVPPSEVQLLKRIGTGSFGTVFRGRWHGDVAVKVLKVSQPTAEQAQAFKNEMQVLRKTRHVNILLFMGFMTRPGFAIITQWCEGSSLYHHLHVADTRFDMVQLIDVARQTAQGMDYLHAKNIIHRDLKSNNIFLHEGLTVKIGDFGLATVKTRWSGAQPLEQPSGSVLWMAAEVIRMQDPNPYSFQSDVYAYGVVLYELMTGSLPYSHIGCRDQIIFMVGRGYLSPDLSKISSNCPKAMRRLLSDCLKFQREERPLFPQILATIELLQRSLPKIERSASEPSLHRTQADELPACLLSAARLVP
# Summary of the method: as §1
# [3] = target: T3, 380 human recombinant protein kinases (Homo sapiens, UniProt P42680); conditions: Tec(h) activated, read-out: Inhibition rate (%)
# T3 construct: purchased Eurofins (Celle Lévescault)
# T3 sequence (P42680 1-631): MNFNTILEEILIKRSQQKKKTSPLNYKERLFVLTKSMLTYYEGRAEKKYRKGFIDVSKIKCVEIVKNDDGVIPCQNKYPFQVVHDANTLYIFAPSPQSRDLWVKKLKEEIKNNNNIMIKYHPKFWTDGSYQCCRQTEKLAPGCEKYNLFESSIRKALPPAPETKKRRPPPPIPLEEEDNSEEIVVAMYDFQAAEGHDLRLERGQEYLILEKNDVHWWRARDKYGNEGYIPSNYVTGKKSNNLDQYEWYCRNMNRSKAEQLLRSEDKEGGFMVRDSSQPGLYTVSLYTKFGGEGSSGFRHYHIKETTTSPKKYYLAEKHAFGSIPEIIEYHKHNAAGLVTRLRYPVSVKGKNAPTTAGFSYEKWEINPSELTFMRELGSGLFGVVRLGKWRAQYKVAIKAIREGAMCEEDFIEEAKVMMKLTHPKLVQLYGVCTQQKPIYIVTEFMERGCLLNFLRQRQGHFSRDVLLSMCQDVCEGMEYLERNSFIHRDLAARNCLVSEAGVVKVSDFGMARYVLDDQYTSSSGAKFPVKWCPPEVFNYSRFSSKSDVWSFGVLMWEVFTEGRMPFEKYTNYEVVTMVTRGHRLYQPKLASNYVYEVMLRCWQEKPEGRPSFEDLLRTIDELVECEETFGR
# Summary of the method: as §1
# [4] = target: T4, 380 human recombinant protein kinases (Homo sapiens, UniProt P43250); conditions: GRK6(h), read-out: Inhibition rate
# T4 construct: purchased Eurofins (Celle Lévescault)
# Summary of the method: as §1
# [5] = target: T5, 380 human recombinant protein kinases (Homo sapiens, UniProt Q8TF76); conditions: Haspin(h), read-out: Inhibition rate
# T5 construct: purchased Eurofins (Celle Lévescault)
# T5 sequence (Q8TF76 1-798): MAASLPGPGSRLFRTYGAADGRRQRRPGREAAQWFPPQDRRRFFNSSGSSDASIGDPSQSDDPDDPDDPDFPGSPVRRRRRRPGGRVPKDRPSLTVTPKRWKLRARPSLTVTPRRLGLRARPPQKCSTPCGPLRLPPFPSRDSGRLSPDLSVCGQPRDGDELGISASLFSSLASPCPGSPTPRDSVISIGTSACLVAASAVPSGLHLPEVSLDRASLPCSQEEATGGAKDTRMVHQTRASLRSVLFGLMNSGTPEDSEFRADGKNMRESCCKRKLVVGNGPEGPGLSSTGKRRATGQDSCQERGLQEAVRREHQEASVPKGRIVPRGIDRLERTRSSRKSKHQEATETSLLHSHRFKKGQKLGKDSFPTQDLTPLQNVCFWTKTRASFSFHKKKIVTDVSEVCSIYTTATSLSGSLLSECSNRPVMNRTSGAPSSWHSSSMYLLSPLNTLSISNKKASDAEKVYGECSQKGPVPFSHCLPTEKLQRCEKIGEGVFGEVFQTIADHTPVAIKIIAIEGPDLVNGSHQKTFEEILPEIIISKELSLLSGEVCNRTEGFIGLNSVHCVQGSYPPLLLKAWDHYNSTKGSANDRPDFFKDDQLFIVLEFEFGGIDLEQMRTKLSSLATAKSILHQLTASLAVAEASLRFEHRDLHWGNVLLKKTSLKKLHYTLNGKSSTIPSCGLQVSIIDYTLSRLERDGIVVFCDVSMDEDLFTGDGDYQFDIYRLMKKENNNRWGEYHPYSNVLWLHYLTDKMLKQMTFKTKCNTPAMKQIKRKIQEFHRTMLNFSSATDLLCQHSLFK
# Summary of the method: as §1
# [6] = target: T6, 380 human recombinant protein kinases (Homo sapiens, UniProt Q9BYT3); conditions: STK33(h), read-out: Inhibition rate (%)
# T6 construct: purchased Eurofins (Celle Lévescault)
# Summary of the method: as §1
# T6 sequence (Q9BYT3 whole entry): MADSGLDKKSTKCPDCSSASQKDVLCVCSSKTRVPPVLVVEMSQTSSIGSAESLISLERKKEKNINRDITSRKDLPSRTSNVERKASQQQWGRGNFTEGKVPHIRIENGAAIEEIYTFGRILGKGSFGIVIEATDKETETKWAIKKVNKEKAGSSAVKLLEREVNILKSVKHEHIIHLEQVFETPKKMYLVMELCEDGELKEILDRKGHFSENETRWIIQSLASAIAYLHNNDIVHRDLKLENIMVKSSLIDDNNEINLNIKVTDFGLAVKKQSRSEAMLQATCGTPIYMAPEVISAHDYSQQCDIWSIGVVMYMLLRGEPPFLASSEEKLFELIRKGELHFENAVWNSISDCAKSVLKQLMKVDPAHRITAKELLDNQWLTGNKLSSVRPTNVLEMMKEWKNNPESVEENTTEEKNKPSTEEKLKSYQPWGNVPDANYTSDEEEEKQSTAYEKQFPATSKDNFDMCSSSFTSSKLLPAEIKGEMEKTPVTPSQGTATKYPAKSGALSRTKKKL
# T4 sequence (P43250 whole entry): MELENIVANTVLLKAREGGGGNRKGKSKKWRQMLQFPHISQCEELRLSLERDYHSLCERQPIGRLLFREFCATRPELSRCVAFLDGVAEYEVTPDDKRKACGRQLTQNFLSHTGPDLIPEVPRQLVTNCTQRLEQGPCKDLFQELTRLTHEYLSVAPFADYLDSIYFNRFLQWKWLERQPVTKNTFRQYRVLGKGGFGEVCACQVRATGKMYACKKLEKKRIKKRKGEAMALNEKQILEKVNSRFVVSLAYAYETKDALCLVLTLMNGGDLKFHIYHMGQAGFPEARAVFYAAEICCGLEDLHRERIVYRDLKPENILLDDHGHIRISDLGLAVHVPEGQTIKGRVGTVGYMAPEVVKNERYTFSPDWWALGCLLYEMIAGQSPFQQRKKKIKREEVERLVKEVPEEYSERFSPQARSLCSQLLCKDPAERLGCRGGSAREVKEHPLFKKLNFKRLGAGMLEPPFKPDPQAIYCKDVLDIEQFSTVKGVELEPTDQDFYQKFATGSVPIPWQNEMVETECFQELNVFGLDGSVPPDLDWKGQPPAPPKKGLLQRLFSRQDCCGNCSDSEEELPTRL
compound,measurement,setting,value
C=CC(=O)Nc1cc(-c2cc(-c3cc4c([nH]3)CCNC4=O)ccn2)ccc1OC(F)(F)F [compound 11],inhibition at 0.01 µM,[1]; 10 nM,7%
same,inhibition at 0.1 µM,[1]; 100 nM,5%
same,inhibition at 1 µM,[1]; 1000 nM,14%
same,inhibition at 0.01 µM,[2]; 10 nM,1%
same,inhibition at 0.1 µM,[2]; 100 nM,15%
same,inhibition at 1 µM,[2]; 1000 nM,18%
same,inhibition at 0.01 µM,[3]; 10 nM,8%
same,inhibition at 0.1 µM,[3]; 100 nM,11%
same,inhibition at 1 µM,[3]; 1000 nM,17%
same,inhibition at 0.01 µM,[4]; 10 nM,-1%
same,inhibition at 0.1 µM,[4]; 100 nM,-1%
same,inhibition at 1 µM,[4]; 1000 nM,1%
same,inhibition at 0.01 µM,[5]; 10 nM,1%
same,inhibition at 0.1 µM,[5]; 100 nM,11%
same,inhibition at 1 µM,[5]; 1000 nM,46%
same,inhibition at 0.01 µM,[6]; 10 nM,8%
same,inhibition at 0.1 µM,[6]; 100 nM,18%
same,inhibition at 1 µM,[6]; 1000 nM,64%
